This is an account of results in patent US20180235949A1 (priority 2015, published 2018).

Molecules are shown by their SMILES.

The target of test [1] is T1, α2B (h) (Homo sapiens, UniProt P18089).
T1 sequence (P18089 1-450): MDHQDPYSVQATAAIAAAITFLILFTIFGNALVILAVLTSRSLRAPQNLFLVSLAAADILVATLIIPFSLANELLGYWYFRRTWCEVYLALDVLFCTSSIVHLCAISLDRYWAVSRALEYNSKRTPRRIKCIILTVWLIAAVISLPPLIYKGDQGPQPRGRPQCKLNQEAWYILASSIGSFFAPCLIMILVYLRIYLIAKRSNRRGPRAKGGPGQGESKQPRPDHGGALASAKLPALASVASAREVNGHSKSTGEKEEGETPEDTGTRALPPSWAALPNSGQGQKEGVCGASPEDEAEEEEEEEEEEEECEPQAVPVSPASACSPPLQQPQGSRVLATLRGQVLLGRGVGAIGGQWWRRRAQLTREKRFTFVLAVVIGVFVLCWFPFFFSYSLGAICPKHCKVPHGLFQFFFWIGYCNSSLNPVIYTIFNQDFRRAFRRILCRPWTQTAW
The test can be described thus: α2B (h) (antagonist radioligand) binding. As for the experimental part:
(§1) Representative compounds were tested to determine IC50 or EC50 in receptor functional assays. One or more of the procedures disclosed in the following references were used: Devedjian, J. C. et al., Eur. J. Pharmacol., 1994, 252, 43-49; Wang, J. B. et al., FEBS Lett., 1994, 338, 217-222; Simonin, F. et al., Mol. Pharmacol., 1994, 46, 1015-1021; Meng, F. et al., Proc. Natl. Acad. Sci. U.S.A., 1993, 90, 9954-9958; Avidor-Reiss, T. et al., FEBS Lett., 1995, 361, 70-74; Eason, M. G. et al., J. Biol. Chem., 1992, 267, 15795-15801; Law, P. Y. et al., Mol. Pharmacol., 1993, 43, 684-693. In each experiment and if applicable, the respective reference compound was tested concurrently with the test compounds. Compound binding was calculated as a % inhibition of the binding of a radioactively labeled ligand specific for each target. Cellular agonist effect was calculated as a % of control response to a known reference agonist for each target and cellular antagonist effect was calculated as a % inhibition of control reference agonist response for each target. Only the calculable IC50 and EC50 are reported below.

Test [2] concerns the target κ (KOP) (Rattus norvegicus, UniProt P34975). It is filed as binding.
Test [3] has as its target T2, μ (MOP) (h) (Homo sapiens, UniProt P35372). It is filed as binding.
Test [4] addresses T2, μ (MOP) (h). The test can be described thus: μ (MOP) (h) (agonist effect) cellular functional assay. The format is cell-based. As for the experimental part: as §1

T2 sequence (P35372 whole entry): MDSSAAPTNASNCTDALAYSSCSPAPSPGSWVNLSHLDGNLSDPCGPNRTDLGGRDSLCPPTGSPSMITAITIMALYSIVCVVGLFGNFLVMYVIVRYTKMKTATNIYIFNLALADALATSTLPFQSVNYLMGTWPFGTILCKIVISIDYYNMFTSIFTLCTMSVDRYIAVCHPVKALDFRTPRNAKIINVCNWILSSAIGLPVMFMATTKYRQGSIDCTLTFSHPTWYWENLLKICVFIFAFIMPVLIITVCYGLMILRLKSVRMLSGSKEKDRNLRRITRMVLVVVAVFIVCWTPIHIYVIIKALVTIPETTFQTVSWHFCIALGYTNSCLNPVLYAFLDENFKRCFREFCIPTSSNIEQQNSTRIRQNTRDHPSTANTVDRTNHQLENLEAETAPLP
κ (KOP), sequence (P34975 whole entry): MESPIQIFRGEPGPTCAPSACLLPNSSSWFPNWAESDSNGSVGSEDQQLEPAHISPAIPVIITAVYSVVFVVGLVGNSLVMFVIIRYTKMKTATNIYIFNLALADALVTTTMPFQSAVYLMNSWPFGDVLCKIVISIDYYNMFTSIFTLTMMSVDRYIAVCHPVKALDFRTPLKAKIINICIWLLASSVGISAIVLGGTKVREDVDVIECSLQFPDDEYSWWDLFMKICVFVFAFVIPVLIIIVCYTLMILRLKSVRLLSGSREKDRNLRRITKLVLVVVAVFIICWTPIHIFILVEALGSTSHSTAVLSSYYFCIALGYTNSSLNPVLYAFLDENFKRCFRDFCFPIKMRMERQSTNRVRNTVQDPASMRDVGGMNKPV

In test [1], `CCC(=O)NC1CCN(CCC(=O)OC)CC1` [Methyl 3-(4-propionamidopiperidin-1-yl)propanoate] came in with an IC50 of 260 µM. For the same compound, the Ki in test [1] amounted to 180 µM. Further, the nH in test [1] (α2B (h) (antagonist radioligand)) was determined as 1; in test [2], 0.8; in test [3], 0.5. In test [4], this compound yielded a concentration giving a half-maximal response (EC50) of 290 µM.

Broadly, the IC50 is the concentration that inhibits the measured activity by half. One may read the Ki as a measure of affinity in units of concentration, obtained from inhibition or displacement. The low end stands for higher affinity, the high end for lower affinity. Broadly, the EC50 is the concentration at which the effect is half-maximal. A low value points to an effect from little substance.
